{"source": "patent US20220135940A1", "about": "“METHOD FOR PRODUCING KIDNEY STRUCTURE HAVING DENDRITICALLY BRANCHED COLLECTING DUCT FROM PLURIPOTENT STEM CELLS” (NATIONAL UNIVERSITY CORPORATION KUMAMOTO UNIVERSITY, priority 2018, published 2022)", "molecules": {"B1": {"name": "Bmp4: BMP signal pathway active substance, human Bmp4 (R & D) (protein, UniProt P12644 293-408, looked up)", "Bone morphogenetic protein 4": "SPKHHSQRARKKNKNCRRHSLYVDFSDVGWNDWIVAPPGYQAFYCHGDCPFPLADHLNSTNHAIVQTLVNSVNSSIPKACCVPTELSAISMLYLDEYDKVVLKNYQEMVVEGCGCR"}, "B2": {"name": "Gdnf: glial cell line-derived neurotrophic factor, recombinant human GDNF protein (protein, UniProt P39905 78-211, looked up)", "Glial cell line-derived …": "SPDKQMAVLPRRERNRQAAAANPENSRGKGRRGQRGKNRGCVLTAIHLNVTDLGLGYETKEELIFRYCSGSCDAAETTYDKILKNLSRNRRLVSDKVGQACCRPIAFDDDLSFLDDNLVYHILRKHSAKRCGCI"}}, "key": {"[1]": {"test_system": "sorted Hoxb7-GFP positive E8.75 WD progenitors", "assay": "Maturation culture of sorted E8.75 WD progenitors, marker genes by qRT-PCR", "format": "cell-based, mouse", "settings": "Wnt agonist 3 μM and Fgf9 100 ng/mL", "protocol": "For embryonic tissue cultures at E8.75, the region caudal to the heart primordia of 12-15 somite-stage embryos were harvested and Hoxb7-GFP+/Flk1− cells were sorted by FACS. The sorted cells were aggregated in a V-bottom 96-well low cell binding plate at about 1,200 cells per aggregate. It was cultured for the first 24 hours using a medium containing 10 μM Y27632, 0.1 μM retinoic acid, 1 μM CHIR99021, 5 ng/mL human Fgf9 and 10% growth factor reduced Matrigel (“Procedure 5 medium”), then, the spheroids were transferred to “Procedure 6 medium” and “Procedure 7 medium,” and cultured for 24 hours each for differentiation.\n(§1) Harvested spheroids or cells were homogenized, and total RNA was isolated using RNeasy Plus Micro Kit (Qiagen), and then a reverse-transcribed with random primers and Superscript III (Invitrogen). Quantitative PCR was carried out using Real-Time PCR system (Takara Bio) and Thunderbird SYBR qPCR Mix (Toyobo). With normalized by β-actin gene, relative mRNA expression levels were analyzed.\nAs the second procedure, the factors that mature the E8.75WD into the E9.5WD were found as follows. We investigated the factors that trigger maturation of the WD progenitors in the early stage, from embryonic E8.75 to E9.5 stage. At embryonic E8.75 to E9.5 stage, the Hoxb7-GFP positive WD progenitors are first clearly detectable in the anterior body trunk of the embryo (8-10 somite level). […]"}, "mouse ES cells [2]": {"test_system": "mouse ES cells", "assay": "Induction of CXCR4+/KIT+ WD progenitors from mouse ES cells, FACS at day 6.25", "format": "cell-based", "protocol": "(§2) ES cells were differentiated in a serum-free medium as follows. The ES cells were dissociated with Accutase™ (ESGRO) and cultured in a serum-free mouse ES cell differentiation medium. The harvested cells were aggregated in a 96-well U-bottom low cell binding plate at 1,000 cells per aggregate to form embryonic bodies (EBs). After 48 hours (day 2), the EBs were dissociated with Accutase and re-aggregated in a serum-free differentiation medium supplemented with 10 ng/mL human activin A (R & D) (Procedure 1). After 24 hours (day 3), the medium was replaced with a medium containing 0.3 ng/mL human Bmp4 (R & D) and 10 μM CHIR 99021 (Procedure 2). After 36 hours (day 4.5), the medium was replaced with procedure 3 medium containing 0.1 μM retinoic acid, 100 ng/mL human Fgf9 and 10 μM SB431542 (Wako). On day 5.5 (24 hours later), the medium was replaced with a medium containing 0.1 μM retinoic acid, 100 ng/mL human Fgf9 and 5 μM CHIR99021 (“Procedure 4 medium”). The differentiation factors of the Hoxb7-GFP ES cell line are shown in the table below together with the differentiation factors of the Osr1-GFP ES cell line.\nOn day 6.25, the induced spheroids were harvested and dissociated by incubating in 0.25% trypsin/EDTA at 37° C. for 6 minutes. After blocking in normal mouse serum, cell surface marker (CXCR4/KIT) staining was carried out in a buffer containing 1% BSA, 1×HBSS and 0.035% NaHCO3. The FACS-sorted 3,000 Hoxb7-GFP+/CXCR4+/KIT+ cells were aggregated in a V-bottom 96-well low cell binding plate to form spheroids. Subsequently, these were cultured using the above E8.75 embryonic tissue culture conditions.\n(§3) Cell aggregates induced from embryonic tissue or mouse ES cells/human iPS cells were dissociated and blocked with normal mouse serum and then cell surface marker staining was carried out in a buffer containing 1% BSA, 1×HBSS and 0.035% NaHCO3. Data analysis was performed with FlowJo software (Treestar)."}, "human iPS cells [3]": {"test_system": "human iPS cells", "assay": "AIM induction from human iPS cells (procedure 3), AIM marker genes by quantitative analysis at day 4.5", "format": "cell-based", "settings": "administered at procedure 3, day 4.5", "protocol": "(§4) Cells were reaggregated at 10,000 cells per aggregate in a V-bottom 96-well low cell binding plate using a medium containing 10 μM Y27632 and 10 ng/mL human activin A and 1 ng/mL human Bmp4 (“Procedure 1 medium”), to form embryonic bodies (EBs). After 24 hours (day 1), the aggregates were transferred to a U-bottom 96-well low cell binding plate containing a medium containing 10 μM CHIR and 1 ng/mL human Bmp4 (“Procedure 2 medium”). After 36 hours (day 2.5), the medium was replaced with a medium containing 0.1 μM retinoic acid, 100 ng/mL human Fgf9, 100 nM LDN193189 and 100 μM SB431542 (“Procedure 3 medium”). On day 4.5, the medium was replaced with a medium containing 0.1 μM retinoic acid, 5 μM CHIR, 100 ng/mL human Fgf9 and 30 nM LDN193189 (“Procedure 4 medium”).\nas §1\nThe induction of WD from human iPS cells was performed as follows. […] This was confirmed by quantitative analysis at day 4.5 and day 6.25, respectively (FIG. 22)."}, "human iPS cells [4]": {"test_system": "human iPS cells", "assay": "Induction of CXCR4+/KIT+ WD progenitors from human iPS cells, FACS at day 6.25", "format": "cell-based", "protocol": "as §4\nOn day 6.25, the induced spheroids were harvested and dissociated by incubating in 0.25% trypsin/EDTA for 6 minutes at 37° C. After blocking in normal mouse serum, cell surface marker (CXCR4/KIT) staining was carried out in a buffer containing 1% BSA, 1×HBSS and 0.035% NaHCO3. The FACS-sorted 5,000 of CXCR4+/KIT+ cells were seeded in a V-bottom 96-well low cell binding plate and precipitated by the centrifuge (210 G for 4 minutes). The supernatant was replaced with a medium containing 10 μM Y27632, 0.1 μM retinoic acid, 1 μM CHIR, 5 ng/mL human Fgf9, 100 ng/mL human Fgf1, 10 nM LDN193189 and 10% growth factor reduced Matrigel (“Procedure 5 medium”). On day 8.5, the spheroids were transferred to a medium containing 10 μM Y27632, 0.1 μM retinoic acid, 3 μM CHIR, 5 ng/mL human Fgf9, 1 ng/mL human GDNF, 100 ng/mL human Fgf1, 10 nM LDN193189 and 10% growth factor reduced Matrigel (“Procedure 6 medium”). On day 10.5, the spheroids were transferred to a medium containing 10 μM Y27632, 0.1 μM retinoic acid, 3 μM CHIR, 2 ng/mL human GDNF, 100 ng/mL human Fgf1, 10 nM LDN193189 and 10% growth factor reduce Matrigel (“Procedure 7 medium”).\nas §3\nNext, the optimal time window for inducing anterior or posterior intermediate mesoderm from the nascent mesoderm was examined. Since the nascent mesoderm population is maintained by the high concentrations of Wnt agonists, the incubation period with Wnt agonists was varied and the subsequent differentiation was applied with conditions specific to the UB or metanephric nephron progenitor cell lineage. The induction efficiency of CXCR4+/KIT+ WD progenitor or ITGA8+/PDGFRA− nephron progenitor cell fraction was examined at day 6.25 or day 12, respectively. […]"}, "[5]": {"test_system": "human iPS cell-derived CXCR4+/KIT+ WD progenitors", "assay": "Maturation culture of sorted human iPS cell-derived CXCR4+/KIT+ WD progenitors, mature WD marker genes", "format": "cell-based", "settings": "continuous administration in addition to mouse WD maturation cocktails, 10% Matrigel", "protocol": "On day 6.25, the induced spheroids were harvested and dissociated by incubating in 0.25% trypsin/EDTA for 6 minutes at 37° C. After blocking in normal mouse serum, cell surface marker (CXCR4/KIT) staining was carried out in a buffer containing 1% BSA, 1×HBSS and 0.035% NaHCO3. The FACS-sorted 5,000 of CXCR4+/KIT+ cells were seeded in a V-bottom 96-well low cell binding plate and precipitated by the centrifuge (210 G for 4 minutes). The supernatant was replaced with a medium containing 10 μM Y27632, 0.1 μM retinoic acid, 1 μM CHIR, 5 ng/mL human Fgf9, 100 ng/mL human Fgf1, 10 nM LDN193189 and 10% growth factor reduced Matrigel (“Procedure 5 medium”). On day 8.5, the spheroids were transferred to a medium containing 10 μM Y27632, 0.1 μM retinoic acid, 3 μM CHIR, 5 ng/mL human Fgf9, 1 ng/mL human GDNF, 100 ng/mL human Fgf1, 10 nM LDN193189 and 10% growth factor reduced Matrigel (“Procedure 6 medium”). […]\nas §1, with “analyzed. […]” for “analyzed.”"}, "mouse ES cells [6]": {"test_system": "mouse ES cells", "assay": "AIM induction from mouse ES cells (procedure 3), AIM marker expression", "format": "cell-based", "settings": "Fgf9 at high concentrations", "protocol": "as §2, §1\nNext, signaling for the AIM differentiation procedure was hypothesized, which is partially different from that for PIM, based on the gene expression profile minimally conserved, between anterior intermediate mesoderm (AIM) (Osr1+, Pax2+, Pax8+, Emx2+, Lhx1+, Gata3+) and posterior intermediate mesoderm (PIM) (Osr1+, Wtl+, Hoxll+) (Procedure 3 in FIG. 2)."}, "[7]": {"test_system": "WD sorted from dissociated E9.5 mouse embryos", "assay": "Maturation culture of sorted E9.5 embryonic WD with growth factor combinations, marker genes by qRT-PCR", "format": "cell-based", "settings": "E9.5 WD aggregates, Gdnf added to RA, Wnt agonist and Fgf9", "protocol": "The posterior regions were harvested from the forelimbs of 22-26 somatic-stage embryos for embryonic tissue culture at […]. The harvested tissues were dissociated into single cells by incubating in DMEM/10% FBS containing 1 mg/mL Type XI collagenase for 6 minutes at 37° C., followed by treatment with DNase I and 0.25% trypsin at 37° C. for 6 minutes. After blocking in normal mouse serum, cell surface marker (Flk1) staining was carried out. Hoxb7-GFP+/Flk1− cells sorted by FACS were resuspended in a mouse ES cell differentiation media, and seeded in a V-bottom 96-well low cell binding plate (Sumitomo Bakelite, Co., Ltd., Cat #MS-9096V) so that there were about 1,600 cells per well. After the centrifuge (210 G, 4 min), the supernatant media was replaced with a medium containing 10 μM Y27632 (Wako), 0.1 μM retinoic acid, 3 μM CHIR99021, 5 ng/mL human Fgf9 (R & D), 1 ng/mL human GDNF (R & D) and 10% growth factor reduced Matrigel (BD) (“Procedure 6 medium”). […]\nas §1, with “analyzed. […]” for “analyzed.”"}}}
{"molecule": "Cc1c[nH]c(-c2cnc(NCCNc3ccc(C#N)cn3)nc2-c2ccc(Cl)cc2Cl)n1", "note": "[CHIR99021, reference compound]", "values": [{"measurement": "expression of maturation marker genes (Hnf1b, Wnt9b, Calb1, E-cadherin)", "setting": "[1]", "value": "worked inhibitory"}, {"measurement": "induction of the CXCR4+/KIT+ population", "setting": "mouse ES cells [2]; procedure 4, removal of the factor from RA, Wnt agonist and Fgf9", "value": "dramatically reduced the induction of the CXCR4+/KIT+ population"}]}
{"molecule": "c1ccc2c(-c3cnn4cc(-c5ccc(N6CCNCC6)cc5)cnc34)ccnc2c1", "note": "[LDN, LDN193189, reference compound]", "values": [{"measurement": "AIM marker genes expression", "setting": "human iPS cells [3]", "value": "greatly enhanced"}, {"measurement": "induction of CXCR4+/KIT+ WD progenitors", "setting": "human iPS cells [4]; administered at procedure 3, day 6.25", "value": "greatly enhanced"}, {"measurement": "expression of the mature WD marker genes", "setting": "[5]", "value": "further enhanced the expression of the mature WD marker genes"}]}
{"molecule": "NC(=O)c1ccc(-c2nc(-c3ccc4c(c3)OCO4)c(-c3ccccn3)[nH]2)cc1", "note": "[SB431542, reference compound]", "values": [{"measurement": "induction of AIM markers", "setting": "mouse ES cells [6]", "value": "enhanced the AIM marker induction"}]}
{"molecule": "CC1=C(/C=C/C(C)=C/C=C/C(C)=C/C(=O)O)C(C)(C)CCC1", "note": "[retinoic acid, all trans-retinoic acid, reference compound]", "values": [{"measurement": "induction of AIM markers", "setting": "mouse ES cells [6]", "value": "common inducer for both AIM and PIM induction"}]}
{"molecule": "Fgf1: fibroblast cell growth factor, human Fgf1", "values": [{"measurement": "expression of the mature WD marker genes", "setting": "[5]", "value": "further enhanced the expression of the mature WD marker genes"}]}
{"molecule": "B1", "values": [{"measurement": "induction of AIM markers", "setting": "mouse ES cells [6]", "value": "inhibitory to the induction of AIM markers"}, {"measurement": "UB induction versus MM induction, concentration dependence", "setting": "mouse ES cells [2]; Bmp4 in procedure 2, activin A in procedure 1", "value": "maximized at higher Bmp4 concentrations compared to MM"}, {"measurement": "concentration at which WD progenitor induction peaked", "setting": "human iPS cells [4]; epiblast patterning stage (day 0 to day 1), combination of activin A and Bmp4", "value": 1, "unit": "ng/mL"}, {"measurement": "concentration at which UB progenitor cells were most efficiently induced", "setting": "human iPS cells [4]; mesoderm induction/patterning with CHIR, days 1 to 2.5", "value": 1, "unit": "ng/mL"}]}
{"molecule": "B2", "values": [{"measurement": "Wnt11 expression and bud-like structure formation", "setting": "[7]", "value": "successfully induced the Wnt11 expression and bud-like structure formation"}]}
